Data published in patent US4931447A, “Cycloalkylamides of (8β)-1-alkyl-6-(substituted) ergolines” (Eli Lilly and Company, priority 1989, dated 1990).

System: Male Rats
Assay: Copulatory performance of male rats, subcutaneous administration (Tables III, IV)
Assay type: in vivo, rat (male Sprague-Dawley)
Conditions: for Postejaculatory Latency / Ejaculatory Latency: 30 min before test; for Copulatory Rate: number of mounts per minute
Description: Adult male rats of the Sprague-Dawley strain were used in these studies. The sexual behavior evaluations were conducted at 2-week intervals beginning at 6 months of age and ending at 12 months of age. During the initial screening process, the male rats of various levels of sexual performance were selected for compound testing. […] Prior to treatment with a drug solution, each male rat was required to have at least two consecutive vehicle tests with similar sexual performance. Following each compound testing, additional vehicle tests were performed.
The mating tests were performed during the dark phase of the lighting cycle using red light illumination. Each behavioral test was initiated with the introduction of a receptive female rat into the arena and was terminated either 30 minutes later or immediately following the first postejaculatory mount. The indiees of mating performance that were evaluated for the rats capable of ejaculation included mount latency (the time interval from the introduction of the female rat to the first mount); intromission latency (the time interval from the introduction of the female rat to the first intromission); ejaculatory latency (the time interval from intromission to ejaculation); postejaculatory interval (the time from ejaculation to the next mount); mount frequency (the total number of mounts with or without intromission prior to ejaculation); intromission frequency (the number of mounts with intromission prior to ejaculation); intromission efficiency (the intromission frequency divided by the mount frequency); copulatory rate (the number of mounts per minute); copulatory frequency (the number of mounts prior to ejaculation); and copulatory efficiency (the number of mounts with intromission divided by the total number of mounts).
Each male rat was given a solution containing either the vehicle alone in water or the compound of Example 1, (8β)-N-cyclohexyl-1-isopropyl-6-methylergoline-8-carboxamide, in the same vehicle. Vehicle was made of 1 mM (millimolar) acetic acid and 1 mM ascorbic acid.
The results of these studies are set forth below in Tables II-VII. In the Tables "N" is the number of animals used to generate the data, the average of which is provided. The specific description of the test performed is set forth in the heading of the Tables.
Control values were obtained from the same rats 2 weeks earlier following
All injections were made 30 minutes prior to testing

**Q.** Which “Postejaculatory Latency” value (0.01 mcg/kg s.c., N = 14, control 366.9 ± 15.6) does the source give for `CC(C)n1cc2c3c(cccc31)[C@H]1C[C@@H](C(=O)NC3CCCCC3)CN(C)[C@@H]1C2` [Example 1, (8β)-N-Cyclohexyl-1-isopropyl-6-methylergoline-8-carboxamide] here?
**A.** 366.8 ± 19.8 s

**Q.** What about the “Ejaculatory Latency” value (0.01 mcg/kg s.c., N = 14, control 602.6 ± 47.4) of the same compound?
**A.** 530.4 ± 64.6 s

**Q.** And the “Copulatory Efficiency” value (0.01 mcg/kg s.c., N = 14, control 0.59 ± 0.05)?
**A.** 0.56 ± 0.03

**Q.** What about the “Mount Frequency” value (0.01 mcg/kg s.c., N = 14, control 20.1 ± 2.4) of the same compound?
**A.** 21.4 ± 2.0

**Q.** And the “Copulatory Rate” value (0.01 mcg/kg s.c., N = 14, control 2.1 ± 0.2)?
**A.** 2.4 ± 0.3

**Q.** And the “Postejaculatory Latency” value (0.10 mcg/kg s.c., N = 15, control 367.1 ± 18.7)?
**A.** 355.9 ± 13.2 s

**Q.** What about the “Ejaculatory Latency” value (0.10 mcg/kg s.c., N = 15, control 747.9 ± 61.8, significant (*)) of the same compound?
**A.** 532.9 ± 58.0 s

**Q.** What about the “Copulatory Efficiency” value (0.10 mcg/kg s.c., N = 15, control 0.38 ± 0.03, significant (*)) of the same compound?
**A.** 0.54 ± 0.04

**Q.** What about the “Mount Frequency” value (0.10 mcg/kg s.c., N = 15, control 25.0 ± 2.3) of the same compound?
**A.** 22.9 ± 2.6

**Q.** What about the “Copulatory Rate” value (0.10 mcg/kg s.c., N = 15, control 2.0 ± 0.2, significant (*)) of the same compound?
**A.** 2.7 ± 0.3

**Q.** And the “Postejaculatory Latency” value (1.0 mcg/kg s.c., N = 11, control 371.2 ± 19.8)?
**A.** 357.3 ± 9.5 s

**Q.** And the “Ejaculatory Latency” value (1.0 mcg/kg s.c., N = 11, control 749.5 ± 59.1, significant (*))?
**A.** 584.8 ± 89.4 s

**Q.** What about the “Copulatory Efficiency” value (1.00 mcg/kg s.c., N = 11, control 0.53 ± 0.04, significant (*)) of the same compound?
**A.** 0.67 ± 0.03

**Q.** And the “Mount Frequency” value (1.00 mcg/kg s.c., N = 11, control 23.1 ± 2.4)?
**A.** 21.4 ± 1.7

**Q.** What about the “Copulatory Rate” value (1.00 mcg/kg s.c., N = 11, control 1.9 ± 0.2, significant (*)) of the same compound?
**A.** 2.4 ± 0.2

**Q.** And the “Postejaculatory Latency” value (10.0 mcg/kg s.c., N = 11, control 368.3 ± 23.0)?
**A.** 333.9 ± 10.9 s

**Q.** And the “Ejaculatory Latency” value (10.0 mcg/kg s.c., N = 11, control 850.4 ± 99.2, significant (*))?
**A.** 454.1 ± 78.4 s

**Q.** What about the “Copulatory Efficiency” value (10.0 mcg/kg s.c., N = 11, control 0.49 ± 0.05, significant (*)) of the same compound?
**A.** 0.57 ± 0.04

**Q.** And the “Mount Frequency” value (10.0 mcg/kg s.c., N = 11, control 23.2 ± 2.1)?
**A.** 18.5 ± 2.4

**Q.** What about the “Copulatory Rate” value (10.0 mcg/kg s.c., N = 11, control 1.7 ± 0.2, significant (*)) of the same compound?
**A.** 2.6 ± 0.4

**Q.** What about the “Postejaculatory Latency” value (100.0 mcg/kg s.c., N = 16, control 373.3 ± 22.8) of the same compound?
**A.** 325.6 ± 16.0 s

**Q.** And the “Ejaculatory Latency” value (100.0 mcg/kg s.c., N = 16, control 731.8 ± 44.5, significant (*))?
**A.** 463.6 ± 46.6 s

**Q.** What about the “Copulatory Efficiency” value (100.0 mcg/kg s.c., N = 16, control 0.49 ± 0.03, significant (*)) of the same compound?
**A.** 0.59 ± 0.04

**Q.** And the “Mount Frequency” value (100.0 mcg/kg s.c., N = 16, control 24.8 ± 2.3)?
**A.** 21.3 ± 1.4

**Q.** What about the “Copulatory Rate” value (100.0 mcg/kg s.c., N = 16, control 2.1 ± 0.2, significant (*)) of the same compound?
**A.** 2.9 ± 0.3
